Test results published in patent US20160108027A1, “SUBSTITUTED BENZOXAZOLES” (BAYER PHARMA AKTIENGESELLSCHAFT, priority 2013, published 2016).

What was measured:
thrombin [1] = target: T1, thrombin (Homo sapiens, UniProt P00734); assay: Measurement of the thrombin inhibition in buffer; assay type: biochemical; conditions: human thrombin 0.06 nmol/l in Tris buffer pH 7.4, 22° C., substrate Boc-Asp(OBzl)-Pro-Arg-AMC; in some cases means of individual determinations
Experimental: To determine the thrombin inhibition of the substances listed above, a biochemical test system is constructed in which the conversion of a thrombin substrate is used for determining the enzymatic activity of human thrombin. Here, thrombin cleaves aminomethylcoumarin, which is measured fluorescently, from the peptic substrate. The determinations are carried out in microtitre plates.
Substances to be tested are dissolved in various concentrations in dimethyl sulphoxide and incubated for 15 min with human thrombin (0.06 nmol/l dissolved in 50 mmol/l of Tris buffer [C,C,C-tris(hydroxymethyl)aminomethane], 100 mmol/l of sodium chloride, 0.1% BSA [bovine serum albumin], pH 7.4) at 22° C. The substrate (5 μmol/l Boc-Asp(OBzl)-Pro-Arg-AMC from Bachem) is then added. After 30 min of incubation, the sample is excited at a wavelength of 360 nm and the emission is measured at 460 nm. The measured emissions of the test mixtures with test substance are compared to the control mixtures without test substance (only dimethyl sulphoxide instead of test substance in dimethyl sulphoxide) and IC50 values are calculated from the concentration/activity relationships. Representative activity data from this test are given in Table 1 below (in some cases as means of individual determinations): […]

thrombin [2] = target: T1, thrombin; assay: Determination of the thrombin-inhibitory activity in plasma samples (ecarin-activated); assay type: biochemical; conditions: citrate plasma, ecarin activation, fluorogenic thrombin substrate; in some cases means of individual determinations
Experimental: To determine the inhibition of thrombin in plasma samples, plasma […] is activated by ecarin. Thrombin activity and/or its inhibition by potential inhibitors is/are then measured fluorenscently by addition of a substrate.
The substances to be tested are dissolved in various concentrations in dimethyl sulphoxide and diluted with water. In white 96-well flat-bottomed plates, 20 μl of substance dilution are mixed with 20 μl of ecarin solution (ecarin reagent, from Sigma E-0504, final concentration 20 mU per reaction) in Ca buffer (200 mM Hepes+560 mM sodium chloride+10 mM calcium chloride+0.4% PEG) or with 20 μl of Ca buffer (as unstimulated control). Furthermore, 20 μl of fluorogenic thrombin substrate (from Bachem 1-1120, final concentration 50 μmol/1) and 20 μl of citrate plasma (from Octapharma) are added, and the mixture is homogenized well. The plate is measured in a SpectraFluorplus Reader using a 360 nm excitation filter and a 465 nm emission filter every minute over 20 minutes. […] Representative activity data from this test are given in Table 2 below (in some cases as means of individual determinations): […]

| SMILES | IC50 (thrombin [1]) | IC50 (thrombin [2]) |
| --- | --- | --- |
| COc1cc(C(=O)N2CC(C)OCC2C(C)(C)O)cc2nc(NCc3cc(Cl)ccn3)oc12 (single isomer, unassigned) [Example 37, (2-{[(4-Chloropyridin-2-yl)methyl]amino}-7-methoxy-1,3-benzoxazol-5-yl) [5-(2-hydroxypropan-2-yl)-2-methylmorpholin-4-yl]methanone] | 0.037 µM | 0.044 µM |
| COc1cc(C(=O)N2CC(C)(C)OCC2(C)CO)cc2nc(NCc3cc(Cl)ccn3)oc12 (single isomer, unassigned) [Example 40, (2-{[(4-Chloropyridin-2-yl)methyl]amino}-7-methoxy-1,3-benzoxazol-5-yl) [5-(hydroxymethyl)-2,2,5-trimethylmorpholin-4-yl]methanone] | 0.018 µM | 0.033 µM |
| COc1cc(C(=O)N2CC(C)(C)OCC2CF)cc2nc(NCc3cc(Cl)ccn3)oc12 (single isomer, unassigned) [Example 43, (2-{[(4-Chloropyridin-2-yl)methyl]amino}-7-methoxy-1,3-benzoxazol-5-yl) [5-(fluoromethyl)-2,2-dimethylmorpholin-4-yl]methanone] | 0.018 µM | 0.017 µM |
| COc1cc(C(=O)N2CC(C)OCC2C2CC(O)C2)cc2nc(NCc3cc(Cl)ccn3)oc12 (single isomer, unassigned) [Example 47, (2-{[(4-Chloropyridin-2-yl)methyl]amino}-7-methoxy-1,3-benzoxazol-5-yl) [5-(3-hydroxycyclobutyl)-2-methylmorpholin-4-yl]methanone] | 0.011 µM | 0.024 µM |
| COc1cc(C(=O)N2CC(C)OCC2C2CC(O)C2)cc2nc(NCc3cc(Cl)ccn3)oc12 (single isomer, unassigned) [Example 50, (2-{[(4-Chloropyridin-2-yl)methyl]amino}-7-methoxy-1,3-benzoxazol-5-yl) [5-(3-hydroxycyclobutyl)-2-methylmorpholin-4-yl]methanone] | 0.012 µM | 0.028 µM |
| COc1cc(C(=O)N2CC(C)OCC2C2CC(O)C2)cc2nc(NCc3cc(Cl)ccn3)oc12 (single isomer, unassigned) [Example 51, (2-{[(4-Chloropyridin-2-yl)methyl]amino}-7-methoxy-1,3-benzoxazol-5-yl) [5-(3-hydroxycyclobutyl)-2-methylmorpholin-4-yl]methanone] | 0.008 µM | 0.017 µM |
| COc1cc(C(=O)N2CC(C)OCC2C2CC(O)C2)cc2nc(NCc3cc(Cl)ccn3)oc12 (single isomer, unassigned) [Example 52, (2-{[(4-Chloropyridin-2-yl)methyl]amino}-7-methoxy-1,3-benzoxazol-5-yl) [5-(3-hydroxycyclobutyl)-2-methylmorpholin-4-yl]methanone] | 0.028 µM | 0.034 µM |
| COc1cc(C(=O)N2CC(C)OCC2CC(C)(C)O)cc2nc(NCc3cc(Cl)ccn3)oc12 (single isomer, unassigned) [Example 56, (2-{[(4-Chloropyridin-2-yl)methyl]amino}-7-methoxy-1,3-benzoxazol-5-yl) [5-(2-hydroxy-2-methylpropyl)-2-methylmorpholin-4-yl]methanone] | 0.025 µM | 0.057 µM |
| COc1cc(C(=O)N2CC(C)OCC2CC(C)(C)O)cc2nc(NCc3cc(Cl)ccn3)oc12 (single isomer, unassigned) [Example 57, (2-{[(4-Chloropyridin-2-yl)methyl]amino}-7-methoxy-1,3-benzoxazol-5-yl) [5-(2-hydroxy-2-methylpropyl)-2-methylmorpholin-4-yl]methanone] | 0.02 µM | 0.03 µM |
| COc1cc(C(=O)N2CCOC(C)(CC(C)O)C2)cc2nc(NCc3cc(Cl)ccn3)oc12 (single isomer, unassigned) [Example 61, (2-{[(4-Chloropyridin-2-yl)methyl]amino}-7-methoxy-1,3-benzoxazol-5-yl) [2-(2-hydroxypropyl)-2-methylmorpholin-4-yl]methanone] | 0.024 µM | 0.1 µM |
| COc1cc(C(=O)N2CC(C)(C)OCC2CC(C)O)cc2nc(NCc3cc(Cl)ccn3)oc12 (single isomer, unassigned) [Example 63, (2-{[(4-Chloropyridin-2-yl)methyl]amino}-7-methoxy-1,3-benzoxazol-5-yl) [5-(2-hydroxypropyl)-2,2-dimethylmorpholin-4-yl]methanone] | 0.011 µM | 0.02 µM |
| COc1cc(C(=O)N2CC(C)(C)OCC2CC(C)O)cc2nc(NCc3cc(Cl)ccn3)oc12 (single isomer, unassigned) [Example 65, (2-{[(4-Chloropyridin-2-yl)methyl]amino}-7-methoxy-1,3-benzoxazol-5-yl) [5-(2-hydroxypropyl)-2,2-dimethylmorpholin-4-yl]methanone] | 0.024 µM | 0.061 µM |
| COc1cc(C(=O)N2CC(C)OCC2CC(C)O)cc2nc(NCc3cc(Cl)ccn3)oc12 (single isomer, unassigned) [Example 67, (2-{[(4-Chloropyridin-2-yl)methyl]amino}-7-methoxy-1,3-benzoxazol-5-yl) [5-(2-hydroxypropyl)-2-methylmorpholin-4-yl]methanone] | 0.016 µM | 0.038 µM |
| COc1cc(C(=O)N2CC(C)OCC2CCO)cc2nc(NCc3cc(Cl)ccn3)oc12 (single isomer, unassigned) [Example 72, (2-{[(4-Chloropyridin-2-yl)methyl]amino}-7-methoxy-1,3-benzoxazol-5-yl) [5-(2-hydroxyethyl)-2-methylmorpholin-4-yl]methanone] | 0.029 µM | 0.037 µM |

The remaining lines, values ahead:

| IC50 (thrombin [1]) | IC50 (thrombin [2]) | SMILES |
| --- | --- | --- |
| 0.011 µM | 0.04 µM | COc1cc(C(=O)N2CC(C)(C)OCC2(C)CO)cc2nc(NCc3cc(Cl)ccn3)oc12 (single isomer, unassigned) [Example 39, (2-{[(4-Chloropyridin-2-yl)methyl]amino}-7-methoxy-1,3-benzoxazol-5-yl) [5-(hydroxymethyl)-2,2,5-trimethylmorpholin-4-yl]methanone] |
| 0.024 µM | 0.041 µM | COc1cc(C(=O)N2CC(C)OCC2(C)C)cc2nc(NCc3cc(Cl)ccn3)oc12 (single isomer, unassigned) [Example 45, (2-{[(4-Chloropyridin-2-yl)methyl]amino}-7-methoxy-1,3-benzoxazol-5-yl)(2,5,5-trimethylmorpholin-4-yl)methanone] |
| 0.011 µM | 0.016 µM | COc1cc(C(=O)N2CC(C)OCC2C2CC(O)C2)cc2nc(NCc3cc(Cl)ccn3)oc12 (single isomer, unassigned) [Example 48, (2-{[(4-Chloropyridin-2-yl)methyl]amino}-7-methoxy-1,3-benzoxazol-5-yl) [5-(3-hydroxycyclobutyl)-2-methylmorpholin-4-yl]methanone] |
| 0.024 µM | 0.053 µM | COc1cc(C(=O)N2CC(C)OCC2C2CC(O)C2)cc2nc(NCc3cc(Cl)ccn3)oc12 (single isomer, unassigned) [Example 49, (2-{[(4-Chloropyridin-2-yl)methyl]amino}-7-methoxy-1,3-benzoxazol-5-yl) [5-(3-hydroxycyclobutyl)-2-methylmorpholin-4-yl]methanone] |
| 0.036 µM | 0.049 µM | COc1cc(C(=O)N2CC(C)OCC23CC(O)C3)cc2nc(NCc3cc(Cl)ccn3)oc12 (single isomer, unassigned) [Example 53, (2-{[(4-Chloropyridin-2-yl)methyl]amino}-7-methoxy-1,3-benzoxazol-5-yl)(2-hydroxy-7-methyl-8-oxa-5-azaspiro[3.5]non-5-yl)methanone] |
| 0.0052 µM | 0.024 µM | COc1cc(C(=O)N2CC(C)(CCO)OCC2COC(F)F)cc2nc(NCc3cc(Cl)ccn3)oc12 (single isomer, unassigned) [Example 60, (2-{[(4-Chloropyridin-2-yl)methyl]amino}-7-methoxy-1,3-benzoxazol-5-yl){5-[(difluoromethoxy)methyl]-2-(2-hydroxyethyl)-2-methylmorpholin-4-yl}methanone] |
| 0.068 µM | 0.107 µM | COc1cc(C(=O)N2CC(C)(C)OCC2CC(C)O)cc2nc(NCc3cc(Cl)ccn3)oc12 (single isomer, unassigned) [Example 62, (2-{[(4-Chloropyridin-2-yl)methyl]amino}-7-methoxy-1,3-benzoxazol-5-yl) [5-(2-hydroxypropyl)-2,2-dimethylmorpholin-4-yl]methanone] |
